Data on four compounds can be found in PMC6352937, “Inhibition of protein phosphatase-1 and -2A by ellagitannins: structure-inhibitory potency relationships and influences on cellular systems” (Journal of Enzyme Inhibition and Medicinal Chemistry, 2019).

One assay concerns the target PP1c. The assay can be described thus: Protein phosphatase assay with 32P-MLC20, native PP1c. In kind it is biochemical. The note with it: native PP1c from rabbit skeletal muscle; 1 µM 32P-MLC20; 10 min preincubation; mean ± SD. On the procedure: (§1) Protein phosphatase activity of either skeletal muscle PP1c or PP2Ac (1.9–2.2 nM), or rPP1cα or rPP1cδ (2.71–3.72 nM), or FLAG-MYPT1-PP1c (∼9 nM) was assayed at 30 °C in absence or presence of polyphenol compounds (0.1–100 µM) in 20 mM Tris/HCl (pH 7.4), 0.1% 2-mercaptoethanol (30 µL). The purified phosphatase samples or HeLa lysates in 300-fold dilution (1.8–3.6 µg/ml) in the presence or absence of 2 µM I2 were preincubated with increasing concentration of the polyphenol compounds (0–100 µM) for 10 min then the reaction was started by the addition of 1 µM ^32P-MLC20 and incubated for 10 min. Polyphenol-treated HeLa cells were washed then lysed in 50 mM Tris/HCl (pH 8.0), 150 mM NaCl, 1% (V/V) Triton X-100, 0.15% (w/v) protease inhibitor cocktail. The phosphatase activity was assayed with 1 µM ^32P-MLC20 for 30 s in 3-fold final dilution (0.24–0.43 mg/ml). The reactions were terminated by the addition of 200 µL of 10% trichloroacetic acid and 200 µL of 6 mg/mL BSA solution. The samples were centrifuged for 3 min at 10,000 rpm and the supernatants (370 µL) were transferred into scintillation vials and the radioactivity of the released ^32Pi was determined in Tri-Carb 2800TR scintillation counter.
(§2) The ellagitannins (Figure 1) assayed on the activity of PP1c or PP2Ac in this study are similar to PGG in composition, but they differ structurally in two important aspects: (i) all of them include hexahydroxydiphenoyl unit linked in various positions, except for pedunculagin which includes two of these linkages; (ii) tellimagrandin I, pedunculagin, and praecoxin B have free glycosidic hydroxyls, while GHG has an unmodified hydroxyl at position 3 of the glucopyranose ring. […] Inhibition of the phosphatase activity by ellagitannins in HeLa cell lysate was also assessed. First, we determined the activity of PP1 and PP2A in the lysates using I2 to inhibit PP1, and low concentration of OA (2 nM) to suppress PP2A specifically, in order to determine the contribution of PP1 and PP2A to the phosphatase activity of lysates (Figure 2(E)).
(§3) Figure 2. The effect of ellagitannins on the activity of PP1 and PP2A. Ellagitannins (0.1–100 µM) were preincubated with the phosphatase samples for 10 min and the phosphatase activity was determined in triplicates with 1 µM ^32P-MLC20 substrate as described in “Materials and methods” section. […] The effect of tellimagrandin I on the activity of rPP1cα (^) and rPP1cδ (●) (C), or FLAG-MYPT1-PP1cδ (▼) (D), or on the phosphatase activity of HeLa lysate in the presence of I2 (□) (F). The effect of I2 and OA on the phosphatase activity of HeLa lysate (E). Phosphatase activity in the absence of ellagitannins, I2 or OA was taken as 100%. Data are means ± SD (n = 3–5).

The target of another assay is PP2Ac. The assay can be described thus: Protein phosphatase assay with 32P-MLC20, native PP2Ac. In kind it is biochemical. The note with it: native PP2Ac from rabbit skeletal muscle; 1 µM 32P-MLC20; 10 min preincubation; mean ± SD. On the procedure: as §1, §2, §3
The next assay has as its system HeLa lysate. Briefly: Phosphatase activity of HeLa cell lysate (32P-MLC20). In kind it is biochemical, human. The note with it: HeLa lysate in 300-fold dilution; 1 µM 32P-MLC20; mean ± SD. On the procedure:
as §1, §2, §3

In assay [1] the test system is HeLa cells. The assay can be described thus: HeLa cell viability, Alamar-blue assay. The note with it: 24 h incubation, serum free; 0-50 µM tested. In kind it is cell-based, human. On the procedure:
HeLa cells and tsa201 cells were cultured as recommended by the supplier. Prior to treatments HeLa cells were serum starved in MEM medium supplemented with 2 mM L-glutamine for 17 h. For phosphatase activity assay cells were treated with increasing concentration of polyphenol compounds (1–50 µM) for 1 h. To assess cell viability by Alamar-blue assay serum starved cells were treated with ellagitannins (1–50 µM) for 24 h in serum free MEM medium. The media was exchanged for resazurin (20 µM) containing serum free media and the cells were incubated for 2 h to enhance resorufin formation by the viable cells. The emission of resorufin was measured by a fluorimeter at 620 nm.
Figure 4. Distinct influence of ellagitannins on the survival and phosphatase activity of HeLa cells. The effect of tellimagrandin I and mahtabin A was assayed on the survival (A) and the phosphatase activity (B) of HeLa cells in 0–50 µM concentration range as detailed in Materials and methods. The cell survival and the phosphatase activity in the absence of ellagitannins were taken as 100%. Data represent means ± SD (n = 3). ANOVA *p < .05, **p < .01, ***p < .001, n.s.: not significant.

In assay [2] the test system is HeLa cells. The assay can be described thus: Phosphatase activity of polyphenol-treated HeLa cells. The note with it: 1 h incubation; 0-50 µM tested. In kind it is cell-based, human. Here is the method: as §1
HeLa cells and tsa201 cells were cultured as recommended by the supplier. […] The emission of resorufin was measured by a fluorimeter at 620 nm. […]

In a further assay the test system is SNAP-25^Thr138. Briefly: Phosphorylation of SNAP-25 Thr138 in cortical synaptosomes (Western blot). The note with it: synaptosomes treated 45 min at 30 °C; ellagitannins 1-100 µM, TMC 10 µM. In kind it is cell-based, mouse. On the procedure:
(§4) Preparation of synaptosomes from murine brain cortex was carried out as described previously. Functional synaptosomes were kept in Krebs buffer (118 mM NaCl, 5 mM KCl, 25 mM NaHCO3, 1 mM MgCl2, 10 mM D-glucose, pH 7.4). After preparation, synaptosomes were treated with either tellimagrandin I or mahtabin A in 1, 10 or 100 µM final concentrations, or with 10 µM tautomycetin (TMC) for 45 min at 30 °C. After the treatments synaptosomes were applied for exocytosis assay or were lysed and the protein lysates were subjected to Western blot. For exocytosis assay an already established protocol[25] was used. FM 2–10 water-soluble styryl dye was incorporated first into the outer leaflet of synaptosome membrane, then into the synaptosomes. Exocytosis was induced by addition of 30 mM KCl to the synaptosomes. The fluorescent intensity of FM 2–10 styryl dye negatively correlated with the extent of synatposomal exocytosis and was measured by Fluoroskan FL (excitation: 488 nm, emission: 540 nm). Western blot of synaptosome proteins was carried out as described previously[24]^,[25].
Figure 5. […] E: Representative Western blot with anti- SNAP-25^pThr138 specific antibody. F: Relative changes in the amount of SNAP-25^pThr138 determined by densitometry of the Western blots normalised on the bands obtained for the loading controls. Data are means ± SD (n = 3). ANOVA *p < .05, **p < .01, ***p < .001, n.s.: not significant.
Background: In western blotting, separated proteins are transferred to a membrane and probed.

Assay [3] deals with mouse cortical synaptosomes. The assay can be described thus: KCl induced exocytosis of cortical synaptosomes (FM 2-10 dye). In kind it is cell-based. The note with it: 30 mM KCl; FM 2-10 fluorescence; 45 min treatment. On the procedure:
as §4
Figure 5. […] E: Representative Western blot with anti- SNAP-25^pThr138 specific antibody. F: Relative changes in the amount of SNAP-25^pThr138 determined by densitometry of the Western blots normalised on the bands obtained for the loading controls. Data are means ± SD (n = 3). […]

The next assay addresses T1, rPP1cα (Homo sapiens, UniProt P62136).
T1 construct: FLAG; made in house
Briefly: Microscale thermophoresis (MST). In kind it is binding. Here is the method: Figure 3. […] The changes in either, the intrinsic fluorescence of unlabelled rPP1cα upon binding to tellimagrandin I and PGG, or changes in fluorescent signal from rPP1cα extrinsically labelled with NT647 dye upon binding with EGCG, were determined at a range of concentration of polyphenols, and the fractions bound are presented. Data points are means ± SD (n = 3).
For orientation: MST reads how a fluorescent partner responds to local heating, with and without ligand.

T1 sequence (P62136 whole entry): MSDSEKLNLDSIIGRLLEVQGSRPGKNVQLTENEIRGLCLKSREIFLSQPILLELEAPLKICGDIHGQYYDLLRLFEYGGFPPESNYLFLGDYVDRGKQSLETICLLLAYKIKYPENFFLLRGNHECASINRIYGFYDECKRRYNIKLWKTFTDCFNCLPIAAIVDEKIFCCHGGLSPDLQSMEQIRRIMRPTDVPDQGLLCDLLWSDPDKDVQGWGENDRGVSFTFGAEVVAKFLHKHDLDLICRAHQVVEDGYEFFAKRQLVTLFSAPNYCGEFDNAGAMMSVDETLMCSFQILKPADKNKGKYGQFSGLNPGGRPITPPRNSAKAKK

As for `O=C(OC[C@H]1O[C@@H](OC(=O)c2cc(O)c(O)c(O)c2)[C@@H]2OC(=O)c3cc(O)c(O)c(O)c3-c3c(cc(O)c(O)c3O)C(=O)O[C@H]2[C@@H]1OC(=O)c1cc(O)c(O)c(O)c1)c1cc(O)c(O)c(O)c1` [mahtabin A], the results for the IC50 against PP1c, on PP2Ac and in the assay with HeLa lysate were 0.41 ± 0.18 µM, 33.8 ± 8.44 µM and 6.19 ± 0.37 µM, respectively. Further, the “Effect on viability (survival) of HeLa cells” value in the assay with HeLa cells [1] is “without effect”. The “Effect on phosphatase activity of HeLa cells” value in the assay on HeLa cells [2] is “without effect”. In addition, in the assay on SNAP-25^Thr138, the “Effect on phosphorylation level of SNAP-25^Thr138” value is recorded as “increased the amount of phosphorylated SNAP-25^Thr138”. The “Effect on KCl induced synaptosomal exocytosis” value in assay [3] is reported as “suppressed exocytosis”.

As to `O=C1OC[C@H]2OC(O)[C@@H]3OC(=O)c4cc(O)c(O)c(O)c4-c4c(cc(O)c(O)c4O)C(=O)O[C@H]3[C@@H]2OC(=O)c2cc(O)c(O)c(O)c2-c2c1cc(O)c(O)c2O` (stereo partly drawn) [pedunculagin], the IC50 is approximately 2.47 µM against PP1c, more than 100 µM against PP2Ac and 33.9 ± 4.54 µM with HeLa lysate.

Regarding `O=C(OC[C@H]1O[C@@H](OC(=O)c2cc(O)c(O)c(O)c2)[C@H](OC(=O)c2cc(O)c(O)c(O)c2)[C@@H](OC(=O)c2cc(O)c(O)c(O)c2)[C@@H]1OC(=O)c1cc(O)c(O)c(O)c1)c1cc(O)c(O)c(O)c1` [PGG, penta-O-galloyl-β-D-glucose], the dissociation constant Kd at rPP1cα (unlabelled rPP1cα, intrinsic fluorescence (NT.LabelFree)) is 3.08 ± 0.35 µM.

Turning to epigallocatechin-3-gallate [EGCG], on rPP1cα (rPP1cα labelled with NT-647 (NT.115)), the Kd came out at 8.2 ± 4.3 µM.

A word on the IC50: it is the concentration at which inhibition is half-maximal. A low value points to inhibition by little substance. The Kd is the free concentration of one partner at which half of the binding sites on the other are occupied at equilibrium, for simple one-to-one binding. A higher Kd goes with a looser complex.
